According to patent publication US9328093B2, “Selective inhibitors of ubiquitin specific protease 7, the pharmaceutical compositions thereof and their therapeutic applications” (HYBRIGENICS SA, priority 2010, dated 2016):

Legend:
[1] = system: HCT116 colon cancer cells; experiment: HCT116 cell viability and proliferation assay (MTS); assay type: cell-based; settings: Homo sapiens, HCT-116, 72 h, HCT116, 72 hours, read-out: Cell viability (MTS): HCT116 GI50 Day3
Method: HCT116 colon cancer cells were obtained from ATCC (American Type Culture Collection), and maintained in Mc Coy's 5A medium containing 10% FBS, 3 mM glutamine and 1% penicillin/streptomycin. Cells were incubated at 37° C. in a humidified atmosphere containing 5% CO2.
Cell viability was assayed using the MTS technique in 96-well culture plates (CellTiter 96® Aqueous Non-Radioactive Cell Proliferation Assay, Promega) according to the manufacturer's instructions. MTS (3-(4,5-dimethyl-thiazol-2-yl)-5-(3-carboxy-methoxyphenyl)-2-(4-sulfophenyl)-2H-tetra-zolium) is a MTT-derived tetrazolium that is reduced in metabolically active cells into a soluble, cell-permeant formazan. The amount of formazan, detected by its absorbance at 492 nm is proportional to the number of living, metabolically active cells.
10^3 HCT116 cells were seeded per well. 24 hours later, the medium was changed and the cells treated in triplicate with the concentrations of each compound from 100 μM to 50 nM. The compounds were diluted in 100% DMSO, whose final concentration on cells was kept at 0.5%.
Cells were incubated with the compounds for 72 hours, and their viability then assayed by the addition of MTS for 2 hours. Absorbance at 492 nm was measured directly from the 96-well culture plates. Gl50 (Growth Inhibition 50) concentrations for each compound were calculated using a sigmoidal variable slope fit (Prism 4.0, Graphpad Softwares). Values represent mean of three independent experiments.

USP7 = biological target: T1, USP7 (Homo sapiens, UniProt Q93009); experiment: USP7 assay with GST-Ub52-Flag substrate (HTRF); assay type: biochemical; settings: USP7 200 pM
T1 construct: Full-length wild-type human USP7 and its catalytic mutant (cysteine 223 replaced by alanine, C223A) were produced as N-terminally His-tagged fusions; His (N); made in house; host or cells: Spodoptera frugiperda Sf9 (or High Five) insect cells, baculovirus pFastBac-HT-B
Method: (§1) For compounds 26 to 38, the in-vitro assays on USP7 and USP8 were carried out according to the following procedure
(§2) The present examples 26 to 38 makes it possible to validate the use of GST-Ub52-Flag in an assay based on the time-resolved measurement of fluorescence emitted by […] in homogenous medium.
(§3) The assay is carried out on multiwell assay plates. The plates are analyzed on a PHERAstar fluorimeter (BMG) after an overnight incubation at 4° C. (excitation 337 nm, emission 620 and 665 nm).
(§4) The reagents used were as follows: • Solution of USP7 at 200 pM and USP8 at 400 pM in 50 mM Tris HCl pH 7.6, Bovine Serum Albumin 0.05%, DTT 5 mM. • Anti-Flag-K (CIS bio international), solution at 0.2 μM in 0.8 M KF, 0.1 Bovine Serum Albumin, Tris HCl 25 mM pH 7.6. • Anti-GST antibody-XL665 conjugate (CIS bio international), solution at 2.6 μM in 0.8 M KF, 0.1% Bovine Serum Albumin, Tris HCl 25 mM pH 7.6. • GST-Ub52-flag solution at 14.75 μM & MBP_Ub52 at 37.7 μM are prepared by dilutions from the stock solution described above in 50 mM Tris HCl pH 7.6, EDTA 0.5 mM, Bovine Serum Albumin 0.05%, DTT 5 mM.
(§5) The enzyme reaction is carried out by mixing GST-Ub52-flag solution with 5 μl of USP7 solution (200 pM final) or 5 μl of USP8 (400 pM final). This mixture is incubated for one hour at room temperature on a multiwell assay plate. A 10 μl mixture of 5 μl of anti-Flag-K solution (0.2 μM) plus 5 μl of anti-GST-XL665 antibody (2.6 μM) is added to each well of the multiwell assay plate. The plate is read after an overnight incubation at 4° C. on a PHERAstar fluorimeter (BMG).
(§6) The decrease in the signal correlates with the increase in enzyme activity i.e. the cleavage of GST-Ub52-Flag substrate. The format used is therefore entirely suitable for a method of assaying an enzyme of the deubiquitinating type such as ubiquitin specific protease, but also for determining a modulator of this enzyme activity.
(§7) The same procedures as mentioned above for assaying the activity of enzymes of the deubiquitinating type are carried out but the various reaction mixtures are incubated with identical enzyme concentration, in the presence or absence of a test compounds 26 to 38. Data (mean values+/− standard deviation) were analyzed as % of control (no compound) and plotted as percentage versus the Log of the compound concentration using GraphPad (Prism).

USP8 = biological target: T2, USP8 (Homo sapiens, UniProt P40818); experiment: USP8 assay with GST-Ub52-Flag substrate (HTRF); assay type: biochemical; settings: USP8 400 pM
T2 construct: His (from pFastBac-HT vector) (N); made in house; host or cells: Sf9 or High Five insect cells, baculovirus
T2 sequence (P40818 1-1118): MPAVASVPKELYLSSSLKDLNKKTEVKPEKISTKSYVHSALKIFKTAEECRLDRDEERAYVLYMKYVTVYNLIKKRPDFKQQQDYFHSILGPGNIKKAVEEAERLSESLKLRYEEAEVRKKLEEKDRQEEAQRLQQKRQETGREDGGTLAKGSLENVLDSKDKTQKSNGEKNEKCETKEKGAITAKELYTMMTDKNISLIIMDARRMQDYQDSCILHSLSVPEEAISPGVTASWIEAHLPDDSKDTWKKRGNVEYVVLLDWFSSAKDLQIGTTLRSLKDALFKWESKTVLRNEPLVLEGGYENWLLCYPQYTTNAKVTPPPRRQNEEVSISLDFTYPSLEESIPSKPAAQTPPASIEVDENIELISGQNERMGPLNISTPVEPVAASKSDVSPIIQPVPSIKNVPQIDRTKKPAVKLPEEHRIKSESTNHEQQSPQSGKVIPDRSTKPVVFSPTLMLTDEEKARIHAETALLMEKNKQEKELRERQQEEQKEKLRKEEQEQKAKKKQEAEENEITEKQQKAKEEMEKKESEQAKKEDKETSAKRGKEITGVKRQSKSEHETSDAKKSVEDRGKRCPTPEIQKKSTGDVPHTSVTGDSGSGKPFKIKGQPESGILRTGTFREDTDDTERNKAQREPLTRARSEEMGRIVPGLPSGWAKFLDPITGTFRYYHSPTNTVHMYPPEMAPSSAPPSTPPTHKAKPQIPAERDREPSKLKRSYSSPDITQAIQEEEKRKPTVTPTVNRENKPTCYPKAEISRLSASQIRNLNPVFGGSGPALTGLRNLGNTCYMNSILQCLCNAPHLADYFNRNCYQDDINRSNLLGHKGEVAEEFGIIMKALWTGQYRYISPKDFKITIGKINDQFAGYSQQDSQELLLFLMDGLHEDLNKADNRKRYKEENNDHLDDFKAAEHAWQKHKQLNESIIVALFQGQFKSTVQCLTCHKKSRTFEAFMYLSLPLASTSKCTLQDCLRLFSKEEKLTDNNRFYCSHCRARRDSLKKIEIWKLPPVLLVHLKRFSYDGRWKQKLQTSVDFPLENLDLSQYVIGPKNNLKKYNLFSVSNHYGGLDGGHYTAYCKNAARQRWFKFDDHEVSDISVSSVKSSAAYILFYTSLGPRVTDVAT
Method: as §1, §2, §3, §4, §5, §6, §7

| Structure (SMILES) | GI50 [1] [µM] | IC50 (USP7) [µM] | IC50 (USP8) [µM] |
| --- | --- | --- | --- |
| Cc1cccc(CN2CCC(CNC(=O)c3ccc4c(Cl)c5c(nc4c3)CCCC5)CC2)c1 [Example 1, 9-Chloro-5,6,7,8-tetrahydro-acridine-3-carboxylic acid [1-(3-methyl-benzyl)-piperidin-4-ylmethyl]-amide] | 2 | – | – |
| CCN1CCCC1CNC(=O)c1ccc2c(Cl)c3c(nc2c1)CCCC3 (centres unmarked) [Example 2, 9-Chloro-5,6,7,8-tetrahydro-acridine-3-carboxylic acid (1-ethyl-pyrrolidin-2-ylmethyl)-amide] | 5 | – | – |
| CCCN(CCC)CCNC(=O)c1ccc2c(Cl)c3c(nc2c1)CCCC3 [Example 3, 9-Chloro-5,6,7,8-tetrahydro-acridine-3-carboxylic acid (2-dipropylamino-ethyl)-amide] | 3.5 | – | – |
| CCCCN(CC)CCNC(=O)c1ccc2c(Cl)c3c(nc2c1)CCCC3 [Example 4, 9-Chloro-5,6,7,8-tetrahydro-acridine-3-carboxylic acid [2-(butyl-ethyl-amino)-ethyl]-amide] | 4 | – | – |
| CCCN(CCC)CCCNC(=O)c1ccc2c(Cl)c3c(nc2c1)CCCC3 [Example 6, 9-Chloro-5,6,7,8-tetrahydro-acridine-3-carboxylic acid (3-dipropylamino-propyl)-amide] | 3.9 | – | – |
| CCN(CC)CCNC(=O)c1ccc2c(Cl)c3c(nc2c1)CCCC3 [Example 7, 9-Chloro-5,6,7,8-tetrahydro-acridine-3-carboxylic acid (2-diethylamino-ethyl)-amide] | 4.3 | – | – |
| O=C(NCCCN1CCCC1)c1ccc2c(Cl)c3c(nc2c1)CCCC3 [Example 8, 9-Chloro-5,6,7,8-tetrahydro-acridine-3-carboxylic acid (3-pyrrolidin-1-yl-propyl)-amide] | 5.9 | – | – |
| CC1CCCC(C)N1CCCNC(=O)c1ccc2c(Cl)c3c(nc2c1)CCCC3 (centres unmarked) [Example 9, 9-Chloro-5,6,7,8-tetrahydro-acridine-3-carboxylic acid [3-(2,6-dimethyl-piperidin-1-yl)-propyl]-amide] | 3.6 | – | – |
| CCN(CC)CCCNC(=O)c1ccc2c(Cl)c3c(nc2c1)CCCC3 [Example 10, 9-Chloro-5,6,7,8-tetrahydro-acridine-3-carboxylic acid (3-diethylamino-propyl)-amide] | 5 | – | – |
| CN(C)CCNC(=O)c1ccc2c(Cl)c3c(nc2c1)CCCC3 [Example 11, 9-Chloro-5,6,7,8-tetrahydro-acridine-3-carboxylic acid (2-dimethylamino-ethyl)-amide] | 7.8 | – | – |
| O=C(c1ccc2c(Cl)c3c(nc2c1)CCCC3)N1CCCCCC1 [Example 12, Azepan-1-yl-(9-chloro-5,6,7,8-tetrahydro-acridin-3-yl)-methanone] | 20 | – | – |
| CCCN1CCN(CCCNC(=O)c2ccc3c(Cl)c4c(nc3c2)CCCC4)CC1 [Example 13, 9-Chloro-5,6,7,8-tetrahydro-acridine-3-carboxylic acid [3-(4-propyl-piperazin-1-yl)-propyl]-amide] | 5.9 | – | – |
| CN1CCN(CCCNC(=O)c2ccc3c(Cl)c4c(nc3c2)CCCC4)CC1 [Example 15, 9-Chloro-5,6,7,8-tetrahydro-acridine-3-carboxylic acid [3-(4-methyl-piperazin-1-yl)-propyl]-amide] | 7.4 | – | – |
| O=C(c1ccc2c(Cl)c3c(nc2c1)CCCC3)N1CCC(N2CCCCC2)CC1 [Example 16, [1,4′]Bipiperidinyl-1′-yl-(9-chloro-5,6,7,8-tetrahydro-acridin-3-yl)-methanone] | 13.5 | – | – |
| O=C(NCCN1CCCCCC1)c1ccc2c(Cl)c3c(nc2c1)CCCC3 [Example 27, N-(2-(azepan-1-yl)ethyl)-9-chloro-5,6,7,8-tetrahydroacridine-3-carboxamide] | 10 | 15.4 | > 200 |
| O=C(NCCN1CCCCC1)c1ccc2c(Cl)c3c(nc2c1)CCCC3 [Example 28, 9-chloro-N-(2-(piperidin-1-yl)ethyl)-5,6,7,8-tetrahydroacridine-3-carboxamide] | 8.8 | 11.9 | > 200 |
| CN1CCC(CN2CCN(C(=O)c3ccc4c(Cl)c5c(nc4c3)CCCC5)CC2)CC1 [Example 29, (9-chloro-5,6,7,8-tetrahydroacridine-3-yl)(4-((1-methylpiperidin-4-yl)methyl)piperazin-1-yl)methanone] | 7.3 | 8.5 | > 200 |
| CN1CCC(N2CCN(C(=O)c3ccc4c(Cl)c5c(nc4c3)CCCC5)CC2)CC1 [Example 30, (9-chloro-5.6,7,8-tetrahydroacridine-3-yl)(4-(1-methylpiperidin-4-yl)piperazin-1-yl)methanone] | 12.5 | 23 | > 200 |
| O=C(c1ccc2c(Cl)c3c(nc2c1)CCCC3)N1CCCCC1 [Example 31, (9-chloro-5,6,7,8-tetrahydroacridine-3-yl)(piperidin-1-yl)methanone] | 11.4 | 24.5 | > 200 |
| O=C(NCC1CCN(Cc2ccccc2)CC1)c1ccc2c(Cl)c3c(nc2c1)CCCC3 [Example 32, N-((1-benzylpiperidin-4-yl)methyl)-9--chloro-5,6,7,8-tetrahydroacridine-3-carboxamide] | 3.1 | 17.6 | > 200 |
